Measured values reported in patent publication US20070191431A1, “2-Amino-5-piperidinylimidazolone compounds and use thereof for beta-secretase modulation” (Wyeth, priority 2005, published 2007).

Key:
[1] = target: human BACE1 (Homo sapiens, UniProt P56817); test: BACE-1 fluorescent kinetic assay (Example 88); format: biochemical; details: 10 nM enzyme, 25 μM substrate WABC-6, Na-Acetate pH 4.5, room temperature; read-out: BACE1 (IC50 μM)
Description: Evaluation of BACE-1 Binding Affinity of Test Compounds
Fluorescent Kinetic Assay
Dilution and mixing steps: total reaction volume: 100 μL
100 μM substrate dilution in 1× PBS was prepared, and
Fluorescence Readings: Readings at Aex 320 nm and Aem 420 nm are taken every 40 sec for 30 min at room temperature and the linear slope for substrate cleavage rate (vi) determined.

Sequence of human BACE1 (P56817 46-501): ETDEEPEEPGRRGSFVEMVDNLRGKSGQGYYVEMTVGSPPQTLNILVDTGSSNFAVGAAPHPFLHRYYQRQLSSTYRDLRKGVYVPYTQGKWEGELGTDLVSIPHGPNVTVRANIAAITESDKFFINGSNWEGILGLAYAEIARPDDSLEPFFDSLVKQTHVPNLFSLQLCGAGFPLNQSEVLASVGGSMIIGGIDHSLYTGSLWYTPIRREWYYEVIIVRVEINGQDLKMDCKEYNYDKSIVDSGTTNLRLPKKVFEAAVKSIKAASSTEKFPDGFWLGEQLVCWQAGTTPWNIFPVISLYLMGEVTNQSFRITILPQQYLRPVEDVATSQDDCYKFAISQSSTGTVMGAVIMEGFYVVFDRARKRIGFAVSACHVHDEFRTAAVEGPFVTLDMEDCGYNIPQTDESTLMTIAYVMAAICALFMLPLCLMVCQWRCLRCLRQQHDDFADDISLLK

Structure (SMILES) | IC50 [1] [µM] | melting point
COCC(=O)Nc1cccc(C2(C3CCN(Cc4ccccc4)CC3)N=C(N)N(C)C2=O)c1 (stereo not drawn) [Example 59, N{3-[2-Amino-4-(1-benzylpiperidin-4-yl)-1-methyl-5-oxo-4,5-dihydro-1H-imidazol-4-yl]phenyl}-2-methoxyacetamide] | > 3 | 120 to 123 °C
CN1C(=O)C(c2cccc(-c3cccnc3F)c2)(C2CCN(C(=O)c3ccccc3)CC2)N=C1N (stereo not drawn) [Example 80, 2-amino-5-(1-benzoylpiperidin-4-yl)-5-[3-(2-fluoropyridin-3-yl)phenyl]-3-methyl-3,5-dihydro-4H-imidazol-4-one] | 0.01 to 1 | 152 to 154 °C
CN1C(=O)C(c2cccc(-c3cncnc3)c2)(C2CCN(C(=O)c3ccccc3)CC2)N=C1N (stereo not drawn) [Example 81, 2-amino-5-(1-benzoylpiperidin-4-yl)-3-methy-5-(3-pyrimidin-5-ylphenyl)-3,5-dihydro-4H-imidazol-4-one] | 0.01 to 1 | 156 to 158 °C
COc1cncc(-c2cccc(C3(C4CCN(C(=O)c5ccccc5)CC4)N=C(N)N(C)C3=O)c2)c1 (stereo not drawn) [Example 82, 2-amino-5-(1-benzoylpiperidin-4-yl)-5-[3-(5-methoxypyridin-3-yl)phenyl]-3-methyl-3,5-dihydro-4H-imidazol-4-one] | 0.01 to 1 | 150 to 153 °C
COc1cccc(-c2cccc(C3(C4CCN(C(=O)c5ccccc5)CC4)N=C(N)N(C)C3=O)c2)c1 (stereo not drawn) [Example 83, 2-amino-5-(1-benzoylpiperidin-4-yl)-5-(3′-methoxybiphenyl-3-yl)-3-methyl-3,5-dihydro-4H-imidazol-4-one] | 0.01 to 1 | 163 to 165 °C
CN1C(=O)C(c2cccc(-c3cccc(F)c3)c2)(C2CCN(C(=O)c3ccccc3)CC2)N=C1N (stereo not drawn) [Example 84, 2-amino-5-(1-benzoylpiperidin-4-yl)-5-(3′-fluorobiphenyl-3-yl)-3-methyl-3,5dihydro-4H-imidazol-4-one] | 0.01 to 1 | 165 to 168 °C
CN1C(=O)C(c2cccc(-c3cccc(Cl)c3)c2)(C2CCN(C(=O)c3ccccc3)CC2)N=C1N (stereo not drawn) [Example 85, 2-amino-5-(1-benzoylpiperidin-4-yl)-5-(3′-chlorobiphenyl-3-yl)-3-methyl-3,5-dihydro-4H-imidazol-4-one] | 0.01 to 1 | 165 to 166 °C
CN1C(=O)C(c2cccc(-c3cc(F)ccc3F)c2)(C2CCN(C(=O)c3ccccc3)CC2)N=C1N (stereo not drawn) [Example 86, 2-amino-5-(1-benzoylpiperidin-4-y)-5-(2′,5′-difluorobiphenyl-3-yl)-3-methyl-3,5-dihydro-4H-imidazol-4-one] | 0.01 to 1 | > 150 °C (dec.)
CN1C(=O)C(c2cccc(-c3cc(F)cc(F)c3)c2)(C2CCN(C(=O)c3ccccc3)CC2)N=C1N (stereo not drawn) [Example 87, 2-amino-5-(1-benzoylpiperidin-4-yl)-5-(3′,5′-difluorobiphenyl-3-yl)-3-methyl-3,5-dihydro-4H-imidazol-4-one] | 0.01 to 1 | > 150 °C (dec.)
